This assay has as its target T1, MAT2A (Homo sapiens, UniProt P31153).
T1 construct: His6; made in house; host or cells: SF9 insect cells
Kind of assay: MAT2A biochemical assay (colorimetric inorganic phosphate detection, PiColorLock). As to conditions: recombinant His6-tagged MAT2A 1 μg/ml; 60 minutes preincubation at 25° C.; L-Met 80 μM, ATP 100 μM; 60 minutes reaction; read at 623 nm; read-out: MAT2A Inhibition Score. Here is the method: In the reaction catalyzed by MAT2A enzyme, L-Met and ATP were converted to SAM, inorganic phosphate, and inorganic diphosphate. […] The concentration of malachite green phosphomolybdate produced in the detection reaction is thus directly related to the quantity of product produced by the MAT2A enzyme. Multiple commercial kits exist for this method of phosphate detection and quantification, such as PiColorLock Gold (Innova Biosciences). Typical reaction was performed in 50 μl final volume, containing buffer (Tris, pH 8.0, 50 mM KCl, 15 mM MgCl2, 300 uM EDTA, bovine serum albumin at 0.005% w/v) and 1 μg/ml MAT2A. Compounds were added in 1 μl of DMSO at the desired concentration; a typical dose response curve contained ten points with three-fold dilution between compound concentrations. […] The reaction was allowed to proceed for 60 minutes at room temperature then halted by the addition of 13 μl of PiColor Lock reagent. After a further 5 minutes of incubation at room temperature, […] of PiColor Stabilizer was added and the reactions were further incubated at 25° C. for 25 minutes. […] Recombinant MAT2A protein was expressed in SF9 insect cells and purified by metal chelate affinity chromatography, using methods well known in the art. After expression of His6-tagged MAT2A cells were disrupted by 4 passes through an M-Yl 10 Micro fluidizer (Microfluidics) set to 500 psi, and then centrifuged at 22,000 rcf for 20 min at 4° C. The supernatant was harvested and loaded at 15 cm/h on a Histrap FF 5*1 ml column (GE) which was equilibrated with 50 mM Tris, 500 mM NaCl, pH7.4. Host cell contaminants were removed by washing the column with equilibration buffer followed by equilibration buffer containing 20 mM imidazole and 60 mM imidazole to baseline. MAT2A protein was eluted by the addition of buffer containing 250 mM imidazole, dialized into 50 mM NaCl, 50 mM Tris, pH 7.4, flash frozen in liquid nitrogen, and stored at −80° C. until use.

T1 sequence (P31153 whole entry): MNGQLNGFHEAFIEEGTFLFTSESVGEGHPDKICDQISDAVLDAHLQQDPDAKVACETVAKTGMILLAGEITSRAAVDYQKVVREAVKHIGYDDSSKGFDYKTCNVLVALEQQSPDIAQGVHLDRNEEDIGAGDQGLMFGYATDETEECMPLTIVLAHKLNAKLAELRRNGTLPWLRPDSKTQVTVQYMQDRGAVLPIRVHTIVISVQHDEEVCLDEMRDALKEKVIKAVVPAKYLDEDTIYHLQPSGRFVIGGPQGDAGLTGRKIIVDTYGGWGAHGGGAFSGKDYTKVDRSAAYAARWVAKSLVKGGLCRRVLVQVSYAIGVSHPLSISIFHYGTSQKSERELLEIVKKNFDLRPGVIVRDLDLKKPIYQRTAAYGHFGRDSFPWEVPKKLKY

Turning to `COc1ccc(-c2c(Nc3cccnn3)[nH]c3c(-c4ccccc4)c(-c4ccccc4)nn3c2=O)cc1` [Compound 101, 6-(4-methoxyphenyl)-2,3-diphenyl-5-(pyridazin-3-ylamino)pyrazolo[1,5-a]pyrimidin-7(4H)-one], the IC50 is less than 100 nM.
For `COc1ccc(-c2c(Nc3ccccn3)[nH]c3c(-c4ccccc4)c(-c4ccccc4)nn3c2=O)cc1` [Compound 102, 6-(4-methoxyphenyl)-2,3-diphenyl-5-(pyridin-2-ylamino)pyrazolo[1,5-a]pyrimidin-7(4H)-one], the IC50 is less than 100 nM.
The same measure for `COc1ccc(-c2c(Nc3cccnc3)[nH]c3c(-c4ccccc4)c(-c4ccccc4)nn3c2=O)cc1` [Compound 103, 6-(4-methoxyphenyl)-2,3-diphenyl-5-(pyridin-3-ylamino)pyrazolo[1,5-a]pyrimidin-7(4H)-one]: less than 100 nM; for `COc1ccc(-c2c(Nc3ccc(C#N)cn3)[nH]c3c(-c4ccccc4)c(-c4ccccc4)nn3c2=O)cc1` [Compound 104, 6-((6-(4-methoxyphenyl)-7-oxo-2,3-diphenyl-4,7-dihydropyrazolo[1,5-a]pyrimidin-5-yl)amino)nicotinonitrile]: less than 100 nM; for `COc1ccc(-c2c(Nc3ccc(F)cn3)[nH]c3c(-c4ccccc4)c(-c4ccccc4)nn3c2=O)cc1` [Compound 105, 5-((5-fluoropyridin-2-yl)amino)-6-(4-methoxyphenyl)-2,3-diphenylpyrazolo[1,5-a]pyrimidin-7(4H)-one]: less than 100 nM.
As for `COc1ccc(-c2c(Nc3ccc(Cl)cn3)[nH]c3c(-c4ccccc4)c(-c4ccccc4)nn3c2=O)cc1` [Compound 106, 5-((5-chloropyridin-2-yl)amino)-6-(4-methoxyphenyl)-2,3-diphenylpyrazolo[1,5-a]pyrimidin-7(4H)-one], the IC50 is less than 100 nM.
As to `COc1ccc(-c2c(Nc3ccc([N+](=O)[O-])cn3)[nH]c3c(-c4ccccc4)c(-c4ccccc4)nn3c2=O)cc1` [Compound 107, 6-(4-methoxyphenyl)-5-((5-nitropyridin-2-yl)amino)-2,3-diphenylpyrazolo[1,5-a]pyrimidin-7(4H)-one], the IC50 was less than 100 nM.
Consider `COc1ccc(-c2c(Nc3ccc(O)cn3)[nH]c3c(-c4ccccc4)c(-c4ccccc4)nn3c2=O)cc1` [Compound 108, 5-(5-hydroxypyridin-2-ylamino)-6-(4-methoxyphenyl)-2,3-diphenylpyrazolo[1,5-a]pyrimidin-7(4H)-one], for which the IC50 is less than 100 nM.
For the molecule `COc1ccc(-c2c(Nc3cc(O)ccn3)[nH]c3c(-c4ccccc4)c(-c4ccccc4)nn3c2=O)cc1` [Compound 109, 5-((4-hydroxypyridin-2-yl)amino)-6-(4-methoxyphenyl)-2,3-diphenylpyrazolo[1,5-a]pyrimidin-7(4H)-one], the IC50 was less than 100 nM.
In the case of `COc1ccc(-c2c(Nc3cccc(F)n3)[nH]c3c(-c4ccccc4)c(-c4ccccc4)nn3c2=O)cc1` [Compound 110, 5-((6-fluoropyridin-2-yl)amino)-6-(4-methoxyphenyl)-2,3-diphenylpyrazolo[1,5-a]pyrimidin-7(4H)-one], the IC50 was less than 100 nM.
Take `COc1ccc(-c2c(Nc3cccc(C#N)n3)[nH]c3c(-c4ccccc4)c(-c4ccccc4)nn3c2=O)cc1` [Compound 111, 6-((6-(4-methoxyphenyl)-7-oxo-2,3-diphenyl-4,7-dihydropyrazolo[1,5-a]pyrimidin-5-yl)amino)picolinonitrile]: the IC50 is less than 100 nM.
On to `COc1ccc(-c2c(Nc3cccc(C(N)=O)n3)[nH]c3c(-c4ccccc4)c(-c4ccccc4)nn3c2=O)cc1` [Compound 112, 6-((6-(4-methoxyphenyl)-7-oxo-2,3-diphenyl-4,7-dihydropyrazolo[1,5-a]pyrimidin-5-yl)amino)picolinamide], for which the IC50 is less than 100 nM.
The same measure for `COc1ccc(-c2c(Nc3ncccc3O)[nH]c3c(-c4ccccc4)c(-c4ccccc4)nn3c2=O)cc1` [Compound 113, 5-(3-hydroxypyridin-2-ylamino)-6-(4-methoxy-phenyl)-2,3-diphenylpyrazolo[1,5-a]pyrimidin-7(4H)-one]: less than 100 nM; for `COc1ccc(-c2c(Nc3cc(C#N)ccn3)[nH]c3c(-c4ccccc4)c(-c4ccccc4)nn3c2=O)cc1` [Compound 114, 2-(6-(4-methoxyphenyl)-7-oxo-2,3-diphenyl-4,7-dihydropyrazolo[1,5-a]pyrimidin-5-ylamino)isonicotinonitrile]: less than 100 nM; for `COc1ccc(-c2c(Nc3ncc(C#N)cn3)[nH]c3c(-c4ccccc4)c(-c4ccccc4)nn3c2=O)cc1` [Compound 115, 2-(6-(4-methoxyphenyl)-7-oxo-2,3-diphenyl-4,7-dihydropyrazolo[1,5-a]pyrimidin-5-ylamino)pyrimidine-5-carbonitrile]: less than 100 nM.
As to `COc1ccc(-c2c(Nc3ccncn3)[nH]c3c(-c4ccccc4)c(-c4ccccc4)nn3c2=O)cc1` [Compound 116, 6-(4-methoxyphenyl)-2,3-diphenyl-5-(pyrimidin-4-ylamino)pyrazolo[1,5-a]pyrimidin-7(4H)-one], the IC50 was less than 100 nM.
Turning to `COc1ccc(-c2c(Nc3cc(N)ncn3)[nH]c3c(-c4ccccc4)c(-c4ccccc4)nn3c2=O)cc1` [Compound 117, 5-((6-aminopyrimidin-4-yl)amino)-6-(4-methoxyphenyl)-2,3-diphenylpyrazolo[1,5-a]pyrimidin-7(4H)-one], the IC50 was less than 100 nM.
For the molecule `COc1ccc(-c2c(Nc3ccnc(OC)n3)[nH]c3c(-c4ccccc4)c(-c4ccccc4)nn3c2=O)cc1` [Compound 118, 6-(4-methoxyphenyl)-5-((2-methoxypyrimidin-4-yl)amino)-2,3-diphenylpyrazolo[1,5-a]pyrimidin-7(4H)-one], the IC50 was less than 100 nM.
For the molecule `COc1ccc(-c2c(Nc3ccnc(O)n3)[nH]c3c(-c4ccccc4)c(-c4ccccc4)nn3c2=O)cc1` [Compound 119, 5-(2-hydroxypyrimidin-4-ylamino)-6-(4-methoxyphenyl)-2,3-diphenyl-pyrazolo[1,5-a]pyrimidin-7(4H)-one], the IC50 was less than 100 nM.
The same measure for `COc1ccc(-c2c(Nc3cncnc3)[nH]c3c(-c4ccccc4)c(-c4ccccc4)nn3c2=O)cc1` [Compound 120, 6-(4-methoxyphenyl)-2,3-diphenyl-5-(pyrimidin-5-ylamino)pyrazolo[1,5-a]pyrimidin-7(4H)-one]: less than 100 nM; for `COc1ccc(-c2c(Nc3ncccn3)[nH]c3c(-c4ccccc4)c(-c4ccccc4)nn3c2=O)cc1` [Compound 121, 6-(4-methoxyphenyl)-2,3-diphenyl-5-(pyrimidin-2-ylamino)pyrazolo[1,5-a]pyrimidin-7(4H)-one]: less than 100 nM; for `COc1ccc(-c2c(Nc3ncc(Cl)cn3)[nH]c3c(-c4ccccc4)c(-c4ccccc4)nn3c2=O)cc1` [Compound 122, 5-((5-chloropyrimidin-2-yl)amino)-6-(4-methoxyphenyl)-2,3-diphenylpyrazolo[1,5-a]pyrimidin-7(4H)-one]: less than 100 nM.
Turning to `COc1ccc(-c2c(Nc3ccc(N)nn3)[nH]c3c(-c4ccccc4)c(-c4ccccc4)nn3c2=O)cc1` [Compound 123, 5-((6-aminopyridazin-3-yl)amino)-6-(4-methoxyphenyl)-2,3-diphenylpyrazolo[1,5-a]pyrimidin-7(4H)-one], the IC50 is less than 100 nM.
For `COc1ccc(-c2c(Nc3ccc(OC)nn3)[nH]c3c(-c4ccccc4)c(-c4ccccc4)nn3c2=O)cc1` [Compound 124, 6-(4-methoxyphenyl)-5-((6-methoxypyridazin-3-yl)amino)-2,3-diphenylpyrazolo[1,5-a]pyrimidin-7(4H)-one], the IC50 was less than 100 nM.
The figure for `COc1ccc(-c2c(Nc3ccc(Cl)nn3)[nH]c3c(-c4ccccc4)c(-c4ccccc4)nn3c2=O)cc1` [Compound 125, 5-((6-chloropyridazin-3-yl)amino)-6-(4-methoxyphenyl)-2,3-diphenylpyrazolo[1,5-a]pyrimidin-7(4H)-one] is less than 100 nM; for `COc1ccc(-c2c(Nc3cnccn3)[nH]c3c(-c4ccccc4)c(-c4ccccc4)nn3c2=O)cc1` [Compound 126, 6-(4-methoxyphenyl)-2,3-diphenyl-5-(pyrazin-2-ylamino)pyrazolo[1,5-a]pyrimidin-7(4H)-one] it is less than 100 nM; for `COc1ccc(-c2c(Nc3nccnc3O)[nH]c3c(-c4ccccc4)c(-c4ccccc4)nn3c2=O)cc1` [Compound 127, 5-((3-hydroxypyrazin-2-yl)amino)-6-(4-methoxyphenyl)-2,3-diphenylpyrazolo[1,5-a]pyrimidin-7(4H)-one] it is less than 100 nM.
The same measure for `COc1ccc(-c2c(Nc3nccnc3N)[nH]c3c(-c4ccccc4)c(-c4ccccc4)nn3c2=O)cc1` [Compound 128, 5-((3-aminopyrazin-2-yl)amino)-6-(4-methoxyphenyl)-2,3-diphenylpyrazolo[1,5-a]pyrimidin-7(4H)-one]: less than 100 nM.

Source of the values: patent US10800782B2, “Inhibitors of cellular metabolic processes” (Agios Pharmaceuticals, Inc., priority 2016, dated 2020).
